Data: US20230031406A1, “COMPOUNDS AND COMPOSITIONS FOR TREATING CONDITIONS ASSOCIATED WITH NLRP ACTIVITY” (Novartis AG, priority 2018, published 2023)

Tested on: PMA-differentiated THP-1 cells
Experiment: hTHP-1 assay containing 10% fetal bovine serum (IL-1β production, Tables B5 and B6)
Format: cell-based, human
Settings: Homo sapiens, THP-1, read-out: hTHP-1 IC50 in 10% FBS, hTHP-1 assay containing 10% fetal bovine serum; Table B5
Summary of the method: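 IL-1β release from PMA-differentiated THP-1 macrophage-like cells was triggered by 5 μM gramicidin for 2 h after 1 h compound exposure, then measured by HTRF.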

SMILES | IC50 [nM]
CCn1cc(F)c([S@](N)(=O)=NC(=O)Nc2c(C)c(C(F)(F)F)nc3c2[C@H](C)CC3)n1 (single isomer, unassigned) [Compound 1100a, (R, R) or (R, S)-N′-((3,5-dimethyl-2-(trifluoromethyl)-6,7-dihydro-5H-cyclopenta[b]pyridin-4-yl)carbamoyl)-1-ethyl-4-fluoro-1H-pyrazole-3-sulfonimidamide] | 1000 to 5000
CCn1cc(F)c([S@](N)(=O)=NC(=O)Nc2c(C)c(C(F)(F)F)nc3c2[C@@H](C)CC3)n1 (single isomer, unassigned) [Compound 1100b, (R, S) or (R, R)-N′-((3,5-dimethyl-2-(trifluoromethyl)-6,7-dihydro-5H-cyclopenta[b]pyridin-4-yl)carbamoyl)-1-ethyl-4-fluoro-1H-pyrazole-3-sulfonimidamide] | 40 to 200
Cc1c(C(F)(F)F)ncc(-c2ccnc(C#N)c2)c1NC(=O)N=S(N)(=O)c1sc(C(C)(C)O)nc1CO (stereo not shown) [Compound 812] | 40 to 200
Cc1c(C(F)(F)F)nc2c(c1NC(=O)N=S(N)(=O)c1nn(C(C)(F)F)cc1F)CCC2 (stereo not shown) [Compound 1004, 1-(1,1-Difluoroethyl)-4-fluoro-N′-((3-methyl-2-(trifluoromethyl)-6,7-dihydro-5H-cyclopenta [b]pyridin-4-yl)carbamoyl)-1H-pyrazole-3-sulfonimidamide] | 200 to 1000
CC(C)(O)c1csc(S(N)(=O)=NC(=O)Nc2c3c(nc(C4CC4)c2C2CC2)CCC3)c1F (stereo not shown) [Compound 1006, N′-((2,3-dicyclopropyl-6,7-dihydro-5H-cyclopenta[b]pyridin-4-yl)-carbamoyl)-3-fluoro-4-(2-hydroxypropan-2-yl)thiophene-2-sulfonimidamide] | 40 to 200
Cc1c(C(F)(F)F)nc2c(c1NC(=O)N=S(N)(=O)c1cnc(C(F)F)s1)CCC2 (stereo not shown) [Compound 1007, 2-(Difluoromethyl)-N′-((3-methyl-2-(trifluoromethyl)-6,7-dihydro-5H-cyclopenta[b]pyridin-4-yl)carbamoyl)thiazole-5-sulfonimidamide] | 5000 to 30000
CCn1cc(F)c(S(N)(=O)=NC(=O)Nc2c3c(nc(C)c2C(F)(F)F)CCC3)n1 (stereo not shown) [Compound 1012, 1-Ethyl-4-fluoro-N′-((2-methyl-3-(trifluoromethyl)-6,7-dihydro-5H-cyclopenta[b]pyridin-4-yl)carbamoyl)-1H-pyrazole-3-sulfonimidamide] | 40 to 200
CC(C)(O)c1csc(S(N)(=O)=NC(=O)Nc2c3c(nc(C(F)(F)F)c2C2CC2)CCC3)c1F (stereo not shown) [Compound 1105, N′-((3-cyclopropyl-2-(trifluoromethyl)-6,7-dihydro-5H-cyclopenta [b]pyridin-4-yl)carbamoyl)-3-fluoro-4-(2-hydroxypropan-2-yl) thiophene-2-sulfonimidamide] | 40 to 200
CC(C)(O)c1csc(S(N)(=O)=NC(=O)Nc2c3c(nc4c2CCC4)CCC3)c1F (stereo not shown) [Compound 1107, 3-Fluoro-N′-((1,2,3,5,6,7-hexahydrodicyclopenta [b,e]pyridin-8-yl)carbamoyl)-4-(2-hydroxypropan-2-yl)thiophene-2-sulfonimidamide] | 40 to 200
Cc1c(C(F)(F)F)nc2c(c1NC(=O)N=S(N)(=O)c1scc(C(C)(C)O)c1F)CCC2 (stereo not shown) [Compound 1108, 3-Fluoro-4-(2-hydroxy-propan-2-yl)-N′-((3-methyl-2-(trifluoromethyl)-6,7-dihydro-5H-cyclopenta[b]pyridin-4-yl)carbamoyl)thiophene-2-sulfonimidamide] | 40 to 200
C[C@@H]1CCc2c1nc1c(c2NC(=O)N=S(N)(=O)c2scc(C(C)(C)O)c2F)CCC1 (stereo partly drawn) [Compound 1109, 3-Fluoro-4-(2-hydroxy-propan-2-yl)-N′-(((R)-3-methyl-1,2,3,5,6,7-hexahydrodicyclopenta [b,e]pyridin-8-yl)-carbamoyl)thiophene-2-sulfonimidamide] | 8 to 40
Cc1nc2c(c(NC(=O)N=S(N)(=O)c3scc(C(C)(C)O)c3F)c1-c1ccccc1)CCC2 (stereo not shown) [Compound 1110, 3-Fluoro-4-(2-hydroxy-propan-2-yl)-N′-((2-methyl-3-phenyl-6,7-dihydro-5H-cyclopenta [b]pyridin-4-yl)carbamoyl)thiophene-2-sulfonimidamide] | 40 to 200
C[C@@H]1CCc2c1nc1c(c2NC(=O)N=S(N)(=O)c2nn(C(C)(F)F)cc2F)CCC1 (stereo partly drawn) [Compound 1111, 1-(1,1-Difluoroethyl)-4-fluoro-N′-(((R)-3-methyl-1,2,3,5,6,7-hexahydrodicyclopenta [b,e]pyridin-8-yl)carbamoyl)-1H-pyrazole-3-sulfonimidamide] | 8 to 40
Cc1c(C(F)(F)F)nc2c(c1NC(=O)N=S(N)(=O)c1nn(C3CC3)cc1F)CCC2 (stereo not shown) [Compound 1114, 1-Cyclopropyl-4-fluoro-N′-((3-methyl-2-(trifluoromethyl)-6,7-dihydro-5H-cyclopenta [b]pyridin-4-yl)carbamoyl)-1H-pyrazole-3-sulfonimidamide] | 40 to 200
Cc1c(C(F)(F)F)nc2c(c1NC(=O)N=S(N)(=O)c1cnc(C(F)(F)F)s1)CCC2 (stereo not shown) [Compound 1118, N′-((3-methyl-2-(trifluoromethyl)-6,7-dihydro-5H-cyclopenta [b]pyridin-4-yl)carbamoyl)-2-(trifluoromethyl) thiazole-5-sulfonimidamide] | 5000 to 30000
C[C@@H](O)Cn1cc(F)c(S(N)(=O)=NC(=O)Nc2c3c(nc4c2CCC42CC2)CCC3)n1 (stereo partly drawn) [Compound 1119, 4-Fluoro-1-((R)-2-hydroxypropyl)-N′-((1′,5′,6′,7′-tetrahydro-2′H-spiro[cyclopropane-1,3′-dicyclopenta[b,e]pyridin]-8′-yl)carbamoyl)-1H-pyrazole-3-sulfonimidamide] | 8 to 40

Same assay, conditions: Homo sapiens, THP-1, read-out: hTHP-1 IC50 in 10% FBS, hTHP-1 assay containing 10% fetal bovine serum; Table B6

SMILES | IC50 [nM]
Cc1c(C(F)(F)F)nc2c(c1NC(=O)N=S(N)(=O)c1nn(C3CC3)cc1F)CCC2 (stereo not shown) [Example 854, 1-Cyclopropyl-4-fluoro-N′-((3-methyl-2-(trifluoromethyl)-6,7-dihydro-5H-cyclopenta[b]pyridin-4-yl)carbamoyl)-1H-pyrazole-3-sulfonimidamide] | 40 to 200
C[C@@H]1CCc2c1nc1c(c2NC(=O)N=S(N)(=O)c2nn(C3CC3)cc2F)CCC1 (stereo partly drawn) [Example 855, 1-Cyclopropyl-4-fluoro-N′-(((R)-3-methyl-1,2,3,5,6,7-hexahydrodicyclopenta[b,e]pyridin-8-yl)carbamoyl)-1H-pyrazole-3-sulfonimidamide] | 8 to 40
CCn1cc(F)c(S(N)(=O)=NC(=O)Nc2c3c(nc(C(F)(F)F)c2C(F)(F)F)CCC3)n1 (stereo not shown) [Example 856, N′-((2,3-bis(trifluoromethyl)-6,7-dihydro-5H-cyclopenta[b]pyridin-4-yl)carbamoyl)-1-ethyl-4-fluoro-1H-pyrazole-3-sulfonimidamide] | 40 to 200
NS(=O)(=NC(=O)Nc1c2c(nc3c1CCC31CC1)CCC2)c1nn(C2CC2)cc1F (stereo not shown) [Example 857, 1-Cyclopropyl-4-fluoro-N′-((1′,5′,6′,7′-tetrahydro-2′H-spiro[cyclopropane-1,3′-dicyclopenta[b,e]pyridin]-8′-yl)carbamoyl)-1H-pyrazole-3-sulfonimidamide] | 40 to 200
NS(=O)(=NC(=O)Nc1c2c(nc3c1CCC3)CCC2)c1nn(C2CC2)cc1F (stereo not shown) [Example 858, 1-Cyclopropyl-4-fluoro-N′-((1,2,3,5,6,7-hexahydrodicyclopenta[b,e]pyridin-8-yl)carbamoyl)-1H-pyrazole-3-sulfonimidamide] | 40 to 200
NS(=O)(=NC(=O)Nc1c2c(nc3c1CCC31CC1)CCC2)c1ccn(C2CC2)n1 (stereo not shown) [Example 861, 1-Cyclopropyl-N′-((1′,5′,6′,7′-tetrahydro-2′H-spiro[cyclopropane-1,3′-dicyclopenta[b,e]pyridin]-8′-yl)carbamoyl)-1H-pyrazole-3-sulfonimidamide] | 40 to 200

Same assay, conditions: read-out: hTHP-1 IC50 in 10% FBS; hTHP-1 assay containing 10% fetal bovine serum; Table B6

SMILES | IC50 [nM]
C[C@@H]1CCc2c1nc1c(c2NC(=O)N=S(N)(=O)c2nn(C3CC3)cc2F)CCC1 (single isomer, unassigned) [Example 867, (R) or (S)-1-cyclopropyl-4-fluoro-N′-(((R)-3-methyl-1,2,3,5,6,7-hexahydrodicyclopenta[b,e]pyridin-8-yl)carbamoyl)-1H-pyrazole-3-sulfonimidamide] | < 8
C[C@@H]1CCc2c1nc1c(c2NC(=O)N=S(N)(=O)c2nn(C3CC3)cc2F)CCC1 (single isomer, unassigned) [Example 868, (S) or (R)-1-cyclopropyl-4-fluoro-N′-(((R)-3-methyl-1,2,3,5,6,7-hexahydrodicyclopenta[b,e]pyridin-8-yl)carbamoyl)-1H-pyrazole-3-sulfonimidamide] | 200 to 1000
Cc1c(C(F)(F)F)nc2c(c1NC(=O)N=S(N)(=O)c1nn(C3CC3)cc1F)CCC2 (single isomer, unassigned) [Example 869, (R) or (S)-1-cyclopropyl-4-fluoro-N′-((3-methyl-2-(trifluoromethyl)-6,7-dihydro-5H-cyclopenta[b]pyridin-4-yl)carbamoyl)-1H-pyrazole-3-sulfonimidamide] | 8 to 40
Cc1c(C(F)(F)F)nc2c(c1NC(=O)N=S(N)(=O)c1nn(C3CC3)cc1F)CCC2 (single isomer, unassigned) [Example 870, (S) or (R)-1-cyclopropyl-4-fluoro-N′-((3-methyl-2-(trifluoromethyl)-6,7-dihydro-5H-cyclopenta[b]pyridin-4-yl)carbamoyl)-1H-pyrazole-3-sulfonimidamide] | 1000 to 5000

Tested on: PMA-differentiated THP-1 cells
Experiment: IL-1β production in PMA-differentiated THP-1 cells stimulated with gramicidin (hTHP-1 assay containing 2% fetal bovine serum; Procedures 1 and 2)
Format: cell-based, human
Settings: Homo sapiens, THP-1, read-out: hTHP-1 IC50 in 2% FBS, hTHP-1 assay containing 2% fetal bovine serum; Table B5
Summary of the method: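 Human monocytic THP-1 cells, matured overnight with PMA at 20 ng/ml, are seeded in low-serum (2% FBS) RPMI. Test compounds, at final concentrations from 100 down to 0.0017 μM, precede gramicidin (5 μM, 2 h) by one hour. Released IL-1β is then determined by HTRF.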

SMILES | IC50 [nM]
CCn1cc(F)c([S@](N)(=O)=NC(=O)Nc2c(C)c(C(F)(F)F)nc3c2[C@H](C)CC3)n1 (single isomer, unassigned) [Compound 1100a, (R, R) or (R, S)-N′-((3,5-dimethyl-2-(trifluoromethyl)-6,7-dihydro-5H-cyclopenta[b]pyridin-4-yl)carbamoyl)-1-ethyl-4-fluoro-1H-pyrazole-3-sulfonimidamide] | 5000 to 30000
CCn1cc(F)c([S@](N)(=O)=NC(=O)Nc2c(C)c(C(F)(F)F)nc3c2[C@@H](C)CC3)n1 (single isomer, unassigned) [Compound 1100b, (R, S) or (R, R)-N′-((3,5-dimethyl-2-(trifluoromethyl)-6,7-dihydro-5H-cyclopenta[b]pyridin-4-yl)carbamoyl)-1-ethyl-4-fluoro-1H-pyrazole-3-sulfonimidamide] | 200 to 1000
